Assay results reported in paper PMC10743653, “Combined In Silico and In Vitro Analyses to Assess the Anticancer Potential of Thiazolidinedione–Thiosemicarbazone Hybrid Molecules” (International Journal of Molecular Sciences, 2023).

Columns and labels:
[1] = test system: HepG2 cells; assay: MTT assay, HepG2; format: cell-based, human; details: for IC50: Homo sapiens, HepG2, MTT, 24 h treatment, mean ± SD; for SI (selectivity index): IC50 CCD 841 CoTr divided by IC50 HepG2
Procedure: The effects of TZD–TSCs 2–5 on the cellular viability of a panel of cell lines were investigated through an 3-(4,5-dimethylthiazol-2-yl)-2,5-diphenyl-2H-tetrazolium bromide (MTT) assay, following a 24 h treatment with the compounds. The panel consisted of three solid tumor cells: T98G (glioblastoma multiforme), HepG2 (hepatocellular carcinoma, epithelial), and HT29 (colon adenocarcinoma, epithelial), as well as noncancerous cells CCD 841 CoTr (normal colon, epithelial).
Primary single dose screenings of TZD–TSCs 2–5 were performed at a concentration of 200 μg/mL, and those that elicited a greater than 80% inhibition of cell proliferation were analyzed at several concentrations, to find their half-maximal inhibitory concentration (IC50). The IC50 values, reported as the mean ± SD in Table 2, indicate the concentration of the tested compound that inhibits the growth/viability of the cancer cell population by 50%. In this specific case of an MTT assay, which measures the activity of mitochondrial dehydrogenases (as an indicator of cell viability), the IC50 values stand for the concentration that inhibits the metabolic activity of cells by 50%.
Human colon adenocarcinoma cells, HT29 (ATCC no. HTB-38), derived from a grade I tumor, were cultured in roswell park memorial institute Medium (RPMI) 1640 medium, supplemented with 10% fetal calf serum (FCS) (GibcoTM, Paisley, UK) and antibiotics (100 U/mL penicillin and 100 μg/mL streptomycin) (Sigma, St. Louis, MO), at 37 °C in a humidified atmosphere with 5% CO2. Human normal colon epithelial cells, CCD 841 CoTr (ATCC no. CRL-1807), were cultured in RPMI 1640 + dulbecco’s modified eagle medium (DMEM) (1:1) medium (Sigma, St. Louis, MO), supplemented with 10% FCS and antibiotics, at 34 °C in a 5% CO2/95% air atmosphere. Human glioblastoma T98G cells were cultured in Dulbecco’s Modified Eagle’s Medium (DMEM) (Sigma Aldrich, St. Louis, MO, USA), supplemented with 10% fetal bovine serum (FBS), penicillin (100 U/mL), and streptomycin (100 μg/mL). Human hepatocellular carcinoma cells, HepG2, were maintained in Eagle’s Minimum Essential Medium, supplemented with 10% FBS, penicillin (100 U/mL), and streptomycin (100 μg/mL).
After 24 h of incubation of the cells with the tested compounds in 100 μL of culture medium, MTT solution (5 mg/mL, 25 μL/well) was added and incubated for an additional 3 h. The purple crystals of formazan which formed in the medium were solubilized overnight in 10% sodium dodecyl sulphate (SDS) in a 0.01 M HCl mixture. The product was quantified spectrophotometrically by measuring its absorbance at 570 nm using an Emax Microplate Reader (Molecular Devices Corporation, Menlo Park, CA, USA).

[2] = test system: HepG2 cells; assay: ECM cell invasion assay (colorimetric), HepG2; format: cell-based, human
Procedure: The anti-invasion effects of 2 and 3 were examined using a Cell Invasion Assay Kit (ECM550, CHEMICON—Millipore Co., Billerica, MA, USA). In brief, 10^5 tumor cells were suspended in medium with 10% FBS and plated into the upper chamber, containing 8 μm pore size polycarbonate membrane precoated with ECMatrix, followed by filling the lower chamber with the same medium, enriched with the investigated compounds. Afterwards, cells were incubated for 24 h and allowed to invade towards the bottom chamber (with medium + 10% FBS). The non-invading cells on the upper membrane surface were removed with a cotton swab and the invasive cells, i.e., cells attached to the lower membrane surface, were stained with 0.1% crystal violet. For colorimetric quantitation, the stained cells were dissolved in 10% acetic acid (200 μL/well) and the obtained solution was transferred to a 96-well plate for spectrometric measurements, at a wavelength of 560 nm.

[3] = DPPH free radical scavenging test
Source text: Antioxidant activity is a complex procedure, usually happening through several multiple or predominant chemical mechanisms (i.e., hydrogen atom transfer (HAT), single electron transfer (SET), and the ability to chelate transition metals), and it is influenced by many factors, which cannot be fully described with one single method. Therefore, it is important to perform more than one type of measurement to take into account the various mechanisms of antioxidant action. In this study, to assess the antioxidant activity of TZD–TSCs 2–5, two complementary tests were used: a DPPH (2,2-diphenyl-1-picrylhydrazyl) free radical-scavenging ability assay, that detects the HAT and SET mechanisms, and a FRAP (ferric reducing antioxidant power) assay, that prefers the […] mechanism. The antioxidant powers of 2–5 were compared to standard antioxidants, such as the water-soluble synthetic analogue of vitamin E (Trolox) and ascorbic acid (vitamin C).
The free radical scavenging activity of […] was measured by the DPPH assay. Briefly, 100 μl of DPPH solution (0.2 mg/mL in ethanol) was added to 100 μL of the tested compound concentrations (25, 75, 150, and 200 μg/mL, respectively). Trolox, at increasing concentrations (1–50 μg/mL), was used as a standard. After 20 min of incubation at room temperature, the absorbances of the solutions were measured at 515 nm. The lower the absorbance, the higher the free radical scavenging activity of the compound. The activity of each compound was determined by comparing its absorbance with that of the standard.
The ability of the compounds to scavenge the DPPH radical was calculated by the following formula:DPPH scavenging effect (%) = [(Xcontrol − Xcompound/Xcontrol) × 100], where Xcontrol is the absorbance of the control and Xcompound is the absorbance in the presence of TZD-TSCs preparations.

| SMILES | IC50 [1] [µM] | SI (selectivity index) [1] | Invasion through artificial ECM model ([2]; HepG2, 1/10 IC50 to IC50, 24 h) | Invasion through artificial ECM model ([2]; HepG2, lowest concentration tested (1/10 of the IC50), 24 h) | DPPH reduction value corresponding to concentration of Trolox ([3]; compound at 25 μg/mL) [µg/mL] | DPPH reduction value corresponding to concentration of Trolox ([3]; compound at 75 μg/mL) [µg/mL] | DPPH reduction value corresponding to concentration of Trolox ([3]; compound at 150 μg/mL) [µg/mL] | DPPH reduction value corresponding to concentration of Trolox ([3]; compound at 200 μg/mL) [µg/mL] |
| --- | --- | --- | --- | --- | --- | --- | --- | --- |
| O=C(C=C1SC(=O)NC1=O)Oc1ccccc1C=NNC(=S)Nc1ccccc1Cl [TZD–TSC 2] | 10.4 ± 0.72 | 4.30 | exhibited inhibitory effects | did not reduce the number of invaded cells | 2.942 | 6.670 | 11.412 | 15.068 |
| O=C(C=C1SC(=O)NC1=O)Oc1ccccc1C=NNC(=S)Nc1cccc(Cl)c1 [TZD–TSC 3] | 2.97 ± 0.39 | 33.80 | exhibited inhibitory effects |  | 2.616 | 9.168 | 17.167 | 21.439 |
